# Legend:
# Assay type in all cases: functional, cell-based
# [1] = system: KETR3; assay: Cytotoxicity against human Ketr3 cells after 96 hrs by MTT assay; conditions: KETR3, 96 h
# [2] = system: A549; assay: Cytotoxicity against human A549 cells after 96 hrs by MTT assay; conditions: A549, 96 h
# [3] = system: BGC-823; assay: Cytotoxicity against human BGC823 cells after 96 hrs by MTT assay; conditions: BGC-823, 96 h
# [4] = system: MCF7; assay: Cytotoxicity against human MCF7 cells after 96 hrs by MTT assay; conditions: MCF7, 96 h
# [5] = system: Bel-7402; assay: Cytotoxicity against human Bel7402 cells after 96 hrs by MTT assay; conditions: Bel-7402, 96 h
# [6] = system: HCT-8; assay: Cytotoxicity against human HCT8 cells after 96 hrs by MTT assay; conditions: HCT-8, 96 h
smiles,measurement,setting,value
CC[C@@]1(O)C(=O)OCc2c1cc1n(c2=O)Cc2cc3c(CN(C)C)c(O)ccc3nc2-1 [TOPOTECAN],IC50,[1],0.0049 µM
same,IC50,[2],3.2 µM
same,IC50,[3],4.3 µM
same,IC50,[4],1.8 µM
same,IC50,[5],1.2 µM
same,IC50,[6],1.5 µM
Cc1cc2oc(=O)c3cc(O)c(O)cc3c2c(=O)o1 [PHELLIGRIDIN A],IC50,[1],> 0.192 µM
same,IC50,[2],> 192 µM
same,IC50,[3],181 µM
same,IC50,[4],109 µM
same,IC50,[5],110 µM
same,IC50,[6],> 192 µM
COC1(CC(C)=O)Oc2cc(/C=C/c3ccc(O)c(O)c3)oc(=O)c2/C1=C/c1ccc(O)c(O)c1 (stereo not given) [PHELLIGRIDIN F],IC50,[1],> 0.104 µM
same,IC50,[2],84 µM
same,IC50,[3],92 µM
same,IC50,[4],85 µM
same,IC50,[5],46 µM
same,IC50,[6],> 104 µM
O=c1oc2cc(/C=C/c3ccc(O)cc3)oc(=O)c2c2cc(O)c(O)cc12 [PHELLIGRIDIN C],IC50,[1],0.094 µM
same,IC50,[2],12 µM
same,IC50,[3],> 137 µM
same,IC50,[4],72 µM
same,IC50,[5],10 µM
same,IC50,[6],126 µM
CC(=O)/C=C(O)/C=C/c1ccc(O)c(O)c1 [HISPOLON],IC50,[1],0.206 µM
same,IC50,[2],183 µM
same,IC50,[3],205 µM
same,IC50,[4],25 µM
same,IC50,[5],38 µM
same,IC50,[6],199 µM
COC(=O)c1c(O)cc(/C=C/c2ccc(O)c(O)c2)oc1=O [PHELLIGRIDIN B],IC50,[1],0.144 µM
same,IC50,[2],> 164 µM
same,IC50,[3],146 µM
same,IC50,[4],143 µM
same,IC50,[5],50 µM
same,IC50,[6],139 µM
O=c1oc2cc(/C=C/c3ccc(O)c(O)c3)oc(=O)c2c2cc(O)c(O)cc12 [PHELLIGRIDIN D],IC50,[1],0.09 µM
same,IC50,[2],16 µM
same,IC50,[3],> 131 µM
same,IC50,[4],37 µM
same,IC50,[5],8 µM
same,IC50,[6],99 µM
CC(=O)/C=C/c1ccc(O)c(O)c1,IC50,[1],0.245 µM
same,IC50,[2],> 280 µM
same,IC50,[3],243 µM
same,IC50,[4],141 µM
same,IC50,[5],153 µM
same,IC50,[6],227 µM
CC1=CC(=O)C2(O1)c1c(cc(/C=C/c3ccc(O)c(O)c3)oc1=O)OC2c1ccc(O)c(O)c1 (stereo not given) [INOSCAVIN A],IC50,[1],> 0.108 µM
same,IC50,[2],> 108 µM
same,IC50,[3],> 108 µM
same,IC50,[4],> 108 µM
same,IC50,[5],88 µM
same,IC50,[6],> 108 µM
CC1=CC(=O)C2(O1)C(c1cc3oc(=O)c4cc(O)c(O)cc4c3c(=O)o1)=Cc1cc(O)c(O)cc12 (stereo not given) [PHELLIGRIDIN E],IC50,[1],> 0.105 µM
same,IC50,[2],79 µM
same,IC50,[3],96 µM
same,IC50,[4],70 µM
same,IC50,[5],55 µM
same,IC50,[6],> 105 µM

# Reference: ChEMBL document CHEMBL1151203, “Phelligridins C-F: cytotoxic pyrano[4,3-c][2]benzopyran-1,6-dione and furo[3,2-c]pyran-4-one derivatives from the fungus Phellinus igniarius” (J Nat Prod, 2004)
